Laboratory results: patent publication US7851474B2, “Dipiperazinyl ketones and related analogues” (Neurogen Corporation, priority 2005, dated 2010)

The compounds below were run against T1, chimeric human H3 receptor (Homo sapiens, UniProt Q9Y5N1, E19D) (assay: Chimeric human H3 receptor GTP binding assay (agonist-stimulated GTP-gamma35S binding, Example 7)). Conditions: not given.
T1 construct: made in house; host or cells: Sf9 insect cells (baculovirus infection); P2 membrane preparation
Type: biochemical
Procedure, shortened: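 IC50 values come from non-linear regression of dose-response curves of filter-bound GTP-gamma^35S, counted by scintillation. Membranes were from infected Sf9 cells carrying receptor plus G-protein subunits, 35 μg/tube, with 10 μM GDP present.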

T1 sequence (Q9Y5N1 with tags, fused parts or gaps E19D): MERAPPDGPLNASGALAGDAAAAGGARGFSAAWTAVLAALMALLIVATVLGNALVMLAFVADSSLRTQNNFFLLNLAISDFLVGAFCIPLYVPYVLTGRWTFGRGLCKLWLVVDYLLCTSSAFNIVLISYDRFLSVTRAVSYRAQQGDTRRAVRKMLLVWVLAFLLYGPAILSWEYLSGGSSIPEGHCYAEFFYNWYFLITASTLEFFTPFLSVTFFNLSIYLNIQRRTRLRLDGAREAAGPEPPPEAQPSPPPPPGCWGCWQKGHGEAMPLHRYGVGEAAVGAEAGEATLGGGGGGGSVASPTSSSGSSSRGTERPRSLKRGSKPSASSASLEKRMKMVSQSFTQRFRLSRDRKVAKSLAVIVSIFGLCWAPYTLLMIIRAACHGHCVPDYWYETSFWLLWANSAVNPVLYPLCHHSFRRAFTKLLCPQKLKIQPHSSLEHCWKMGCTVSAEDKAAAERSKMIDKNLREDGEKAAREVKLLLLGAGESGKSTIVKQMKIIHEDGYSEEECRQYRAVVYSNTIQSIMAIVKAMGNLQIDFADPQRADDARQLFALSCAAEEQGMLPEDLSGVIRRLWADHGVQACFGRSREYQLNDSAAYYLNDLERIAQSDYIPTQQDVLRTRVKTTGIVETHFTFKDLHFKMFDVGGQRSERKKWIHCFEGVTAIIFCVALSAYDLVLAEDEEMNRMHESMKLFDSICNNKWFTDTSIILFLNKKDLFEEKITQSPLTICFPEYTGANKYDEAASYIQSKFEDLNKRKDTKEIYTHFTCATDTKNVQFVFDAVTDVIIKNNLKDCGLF

SMILES	Ki
CC(C)N1CCN(C(=O)CN2CCN(c3cccc(Cl)c3Cl)CC2)CC1 [Compound 262, 1-(2,3-dichlorophenyl)-4-[2-(4-isopropylpiperazin-1-yl)-2-oxoethyl]piperazine]	< 1000 nM

Same assay, conditions: "*" in Ki of Table II; assay of Example 7; read-out: Ki

Ki	SMILES
< 1000 nM	O=C(CN1CCN(c2ccc(Cl)c(C(F)(F)F)c2)CC1)N1CCN(C2CCC2)CC1 [Compound 464, 1-[4-chloro-3-(trifluoromethyl)phenyl]-4-[2-(4-cyclobutylpiperazin-1-yl)-2-oxoethyl]piperazine]
< 1000 nM	CCCN(CC1CC1)C1CCN(CC(=O)N2CCN(C(C)CC)CC2)CC1 (stereo not shown) [Compound 449, 1-[2-(4-sec-butylpiperazin-1-yl)-2-oxoethyl]-N-(cyclopropylmethyl)-N-propylpiperidin-4-amine]

Same assay, conditions: Table II "Ki", symbol "*": Ki in the assay of Example 7; read-out: Ki

SMILES	Ki
O=C(CN1CCN(c2cccc(Cl)c2Cl)CC1)N1CCN(C2CCCC2)CC1 [Compound 831, 1-cyclopentyl-4-{[4-(2,3-dichlorophenyl)piperazin-1-yl]acetyl}piperazine]	< 1000 nM
CCC(C)N1CCN(C(=O)CN2CCN(c3ccc(OC)c(OC)c3)CC2)CC1 (stereo not shown) [Compound 870, 1-sec-butyl-4-{[4-(3,4-dimethoxyphenyl)piperazin-1-yl]acetyl}piperazine]	< 1000 nM
CCC(C)N1CCN(C(=O)CN2CCN(c3cccc(OC)c3)CC2)CC1 (stereo not shown) [Compound 875, 1-sec-butyl-4-{[4-(3-methoxyphenyl)piperazin-1-yl]acetyl}piperazine]	< 1000 nM
CCC(C)N1CCN(C(=O)CN2CCN(c3cc(Cl)ccc3C)CC2)CC1 (stereo not shown) [Compound 885, 1-sec-butyl-4-{[4-(5-chloro-2-methylphenyl)piperazin-1-yl]acetyl}piperazine]	< 1000 nM

The remaining lines, values ahead:

Ki	SMILES
< 1000 nM	CC(=O)c1ccc(N2CCC(C(=O)OCC(=O)N3CCN(C4CCCC4)CC3)CC2)cc1 [Compound 908, 2-(4-cyclopentylpiperazin-1-yl)-2-oxoethyl 1-(4-acetylphenyl)piperidine-4-carboxylate]
< 1000 nM	O=C(CN1CCN(c2cnc(-c3ccc(Oc4ccccc4)cc3)cn2)CC1)N1CCN(C2CCC2)CC1 [Compound 936, 2-{4-[2-(4-cyclobutylpiperazin-1-yl)-2-oxoethyl]piperazin-1-yl}-5-(4-phenoxyphenyl)pyrazine]
< 1000 nM	O=C(CN1CCN(c2cnc(-c3cccc(OC(F)(F)F)c3)cn2)CC1)N1CCN(C2CCC2)CC1 [Compound 937, 2-{4-[2-(4-cyclobutylpiperazin-1-yl)-2-oxoethyl]piperazin-1-yl}-5-[3-(trifluoromethoxy)phenyl] pyrazine]

Same assay, conditions: Table II, "*" in Ki; assay of Example 7; read-out: Ki

Ki	SMILES
< 1000 nM	CC1CC(C)CN(C(=O)c2cccc(N3CCN(CC(=O)N4CCN(C5CCC5)CC4)CC3)c2)C1 (stereo not shown) [Compound 641, 1-cyclobutyl-4-[(4-{3-[(3,5-dimethylpiperidin-1-yl)carbonyl]phenyl}piperazin-1-yl)acetyl]piperzaine]
< 1000 nM	COc1cc(-c2ccc(N3CCN(CC(=O)N4CCN(C5CCC5)CC4)CC3)cc2)cc(OC)c1OC [Compound 725, 1-cyclobutyl-4-{[4-(3′,4′,5′-trimethoxybiphenyl-4-yl)piperazin-1-yl]acetyl}piperazine]
< 1000 nM	O=C(CN1CCN(c2ccc(-c3ccc4c(c3)OCCO4)cc2)CC1)N1CCN(C2CCC2)CC1 [Compound 592, 1-cyclobutyl-4-({4-[4-(2,3-dihydro-1,4-benzodioxin-6-yl)phenyl]piperazin-1-yl}acetyl)piperazine]
< 1000 nM	Cc1ccc(-c2ccc(N3CCN(CC(=O)N4CCN(C5CCC5)CC4)CC3)cc2)cc1C [Compound 735, 1-cyclobutyl-4-{[4-(3′,4′-dimethylbiphenyl-4-yl)piperazin-1-yl]acetyl}piperazine]
< 1000 nM	Cc1cccc(C)c1-c1ccc(N2CCN(CC(=O)N3CCN(C4CCC4)CC3)CC2)cc1 [Compound 697, 1-cyclobutyl-4-{[4-(2′,6′-dimethylbiphenyl-4-yl)piperazin-1-yl]acetyl}piperazine]
< 1000 nM	Cc1cc(C)c(-c2ccc(N3CCN(CC(=O)N4CCN(C5CCC5)CC4)CC3)cc2)c(C)c1 [Compound 673, 1-cyclobutyl-4-{[4-(2′,4′,6′-trimethylbiphenyl-4-yl)piperazin-1-yl]acetyl}piperazine]
< 1000 nM	O=C(CN1CCN(c2ccc(-c3ccc(OC(F)(F)F)cc3)cc2)CC1)N1CCN(C2CCC2)CC1 [Compound 604, 1-cyclobutyl-4-({4-[4′-(trifluoromethoxy)biphenyl-4-yl]piperazin-1-yl}acetyl)piperazine]

Same assay, conditions: Table II; assay of Example 7; "*" in Ki; read-out: Ki

Ki	SMILES
< 1000 nM	O=C(NCC1CCCCC1)c1cccc(N2CCN(CC(=O)N3CCN(C4CCC4)CC3)CC2)c1 [Compound 1084, 3-{4-[2-(4-cyclobutylpiperazin-1-yl)-2-oxoethyl]piperazin-1-yl}-N-(cyclohexylmethyl) benzamide]
< 1000 nM	O=C(CN1CCC2(CC1)c1ccccc1C(=O)N2C1CCC1)N1CCN(C2CCC2)CC1 [Compound 984, 2-cyclobutyl-1′-[2-(4-cyclobutylpiperazin-1-yl)-2-oxoethyl]spiro[isoindole-1,4′-piperidin]-3(2H)-one]
< 1000 nM	O=C(NC1CCCCCC1)c1cccc(N2CCN(CC(=O)N3CCN(C4CCC4)CC3)CC2)c1 [Compound 1083, 3-{4-[2-(4-cyclobutylpiperazin-1-yl)-2-oxoethyl]piperazin-1-yl}-N-cycloheptylbenzamide]
< 1000 nM	COc1cc(-c2cnc(N3CCN(CC(=O)N4CCN(C5CCC5)CC4)CC3)cn2)cc(OC)c1OC [Compound 943, 2-{4-[2-(4-cyclobutylpiperazin-1-yl)-2-oxoethyl]piperazin-1-yl}-5-(3,4,5-trimethoxyphenyl)pyrazine]
< 1000 nM	CN(C)c1ccc(-c2cnc(N3CCN(CC(=O)N4CCN(C5CCC5)CC4)CC3)cn2)cc1 [Compound 1097, 4-(5-{4-[2-(4-cyclobutylpiperazin-1-yl)-2-oxoethyl]piperazin-1-yl}pyrazin-2-yl)-N,N-dimethylaniline]
< 1000 nM	N#Cc1ccc(-c2cnc(N3CCN(CC(=O)N4CCN(C5CCC5)CC4)CC3)cn2)cc1 [Compound 1098, 4-(5-{4-[2-(4-cyclobutylpiperazin-1-yl)-2-oxoethyl]piperazin-1-yl}pyrazin-2-yl)benzonitrile]
< 1000 nM	COc1ccc(-c2ccc(N3CCN(CC(=O)N4CCN(C5CCC5)CC4)CC3)nn2)cc1F [Compound 1027, 3-{4-[2-(4-cyclobutylpiperazin-1-yl)-2-oxoethyl]piperazin-1-yl}-6-(3-fluoro-4-methoxyphenyl) pyridazine]
< 1000 nM	CN(C)C(=O)c1ccc(N2CCN(CC(=O)N3CCN(C4CCC4)CC3)CC2)cc1 [Compound 1123, 4-{1-[2-(4-cyclobutylpiperazin-1-yl)-2-oxoethyl]piperazin-1-yl}-N,N-dimethylbenzamide]
< 1000 nM	COc1ccc(-c2ccc(N3CCN(CC(=O)N4CCN(C5CCC5)CC4)CC3)nn2)cc1C [Compound 1036, 3-{4-[2-(4-cyclobutylpiperazin-1-yl)-2-oxoethyl]piperazin-1-yl}-6-(4-methoxy-3-methylphenyl)pyridazine]
< 1000 nM	O=C(CN1CCN(c2ccc(-c3cccc(F)c3F)nn2)CC1)N1CCN(C2CCC2)CC1 [Compound 1053, 3-{4-[2-(4-cyclobutylpiperazin-1-yl)-2-oxoethyl]piperazin-1-yl}-6-(2,3-difluorophenyl)pyridazine]
< 1000 nM	O=C(CN1CCN(c2ccc(-c3cccc(Cl)c3)nn2)CC1)N1CCN(C2CCC2)CC1 [Compound 988, 3-(3-chlorophenyl)-6-{4-[2-(4-cyclobutylpiperazin-1-yl)-2-oxoethyl]piperazin-1-yl}pyridazine]
< 1000 nM	O=C(CN1CCN(c2ccc(-c3ccc(F)cc3)nn2)CC1)N1CCN(C2CCC2)CC1 [Compound 1003, 3-{4-[2-(4-cyclobutylpiperazin-1-yl)-2-oxoethyl]piperazin-1-yl}-6-(4-fluorophenyl)pyridazine]

Same assay, conditions: assay of Example 7; "*" in Ki of Table II; read-out: Ki

Ki	SMILES
< 1000 nM	CC(C)CN1CCN(C(=O)CN2CCN(c3ccc4c(c3)COC4=O)CC2)CC1 [Compound 1161, 5-{4-[2-(4-isobutylpiperazin-1-yl)-2-oxoethyl]piperazin-1-yl}-2-benzofuran-1(3H)-one]
< 1000 nM	CCCCC(=O)NC1CCN(CC(=O)N2CCN(C3CCC3)CC2)C1 (stereo not shown) [Compound 1257, N-{1-[2-(4-cyclobutylpiperazin-1-yl)-2-oxoethyl]pyrrolidin-3-yl}pentanamide]
< 1000 nM	CSc1ccc(C(=O)NC2CCN(CC(=O)N3CCN(C4CCC4)CC3)C2)cc1 (stereo not shown) [Compound 1241, N-{1-[2-(4-cyclobutylpiperazin-1-yl)-2-oxoethyl]pyrrolidin-3-yl}-4-(methylthio)benzamide]

Same assay, conditions: assay of Example 7; symbol * in column headed Ki of Table II; read-out: Ki

Ki	SMILES
< 1000 nM	O=C(CN1CCC(N2CCCCC2)CC1)N1CCN(C2CCC2)CC1 [Compound 421, 1′-[2-(4-cyclobutylpiperazin-1-yl)-2-oxoethyl]-1,4′-bipiperidine]
< 1000 nM	O=C1NC2(CCN(CC(=O)N3CCN(C4CCC4)CC3)CC2)c2ncccc21 [Compound 436, 1-[2-(4-cyclobutylpiperazin-1-yl)-2-oxoethyl]spiro[piperidine-4,7′-pyrrolo[3,4-b]pyridin]-5′(6′H)-one]
< 1000 nM	COc1cc(N2CCN(CC(=O)N3CCN(C4CCCC4)CC3)CC2)ccc1Br [Compound 334, 1-(4-bromo-3-methoxyphenyl)-4-[2-(4-cyclopentylpiperazin-1-yl)-2-oxoethyl]piperazine]
< 1000 nM	COc1ccc(Cl)cc1N1CCN(CC(=O)N2CCN(C3CCC3)CC2)CC1 [Compound 366, 1-(5-chloro-2-methoxyphenyl)-4-[2-(4-cyclobutylpiperazin-1-yl)-2-oxoethyl]piperazine]
< 1000 nM	CC(=O)c1ccc(N2CCN(CC(=O)N3CCN(C4CCCCC4)CC3)CC2)cc1 [Compound 321, 1-(4-{4-[2-(4-cyclohexylpiperazin-1-yl)-2-oxoethyl]piperazin-1-yl}phenyl)ethanone]
